The record followed here is US10064838B2, “Method for treating tau-associated diseases using tetrahydropyranol derivatives” (NATIONAL TAIWAN NORMAL UNIVERSITY, priority 2016, dated 2018).

A short description of data set [1]: MTT cytotoxicity in HEK-293 cells. It is filed as cell-based. Conditions: human, 24 h treatment, read-out: half maximal inhibitory concentration (IC50), cytotoxicity. The protocol:
(§1) The HEK-293 cells and SH-SY5Y cells were seeded into a 48-well plate (5×10^4), grown for 24 h, and treated with 0.1 μM, 1 μM, 10 μM, 100 μM of compound (A), compound (B), or compound (C) individually for 24 h. Then 20 μL of MTT (5 mg/mL dissolved in PBS) was added for 2 h and the full wavelength microplate spectrophotometer was used for detecting the absorbance of the purple formazan at 570 nm.
(§2) As a result, the cytotoxicities of compound (A), compound (B), and compound (C) are low and not harmful to the cells.

Data set [2] can be described thus: MTT cytotoxicity in SH-SY5Y cells. Conditions: human, 24 h treatment, read-out: half maximal inhibitory concentration (IC50), cytotoxicity. It is filed as cell-based. On the procedure: as §1, §2
For another data set, the target named is T1, ΔK280 tauRD-DsRed (Homo sapiens, UniProt P10636, DEL597-597).
T1 construct: tauRD: Gln^244-Glu^372 of the longest tau^441 isoform; expressed in transfected cells; host or cells: HEK-293 (Tet-On, doxycycline-induced)
T1 sequence (P10636 with tags, fused parts or gaps isoform P10636-8 DEL280-280): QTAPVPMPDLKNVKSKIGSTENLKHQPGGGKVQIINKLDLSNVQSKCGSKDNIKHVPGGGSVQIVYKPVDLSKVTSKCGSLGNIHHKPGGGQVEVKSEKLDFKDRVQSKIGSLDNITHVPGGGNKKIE
The experiment in a line: Inhibition of ΔK280 tauRD-DsRed aggregation (DsRed fluorescence, high content analysis). It is filed as cell-based. The settings on record: 8 h pretreatment, Dox 3 days, ΔK280 tauRD-DsRed 293 cells. From the text:
We used human embryonic kidney HEK-293 (cultured with DMEM supplemented with 10% FBS) and neuroblastoma SH-SY5Y (cultured with DMEM F12 supplemented with 10% FBS) cells expressing a DsRed-tagged pro-aggregation mutant (ΔK280) of the C-terminal repeat domain of tau (tauRD: Gln^244-Glu^372 of the longest tau^441 isoform). The recombinant tauRD-DsRed construct was under the control of a hybrid human cytomegalovirus (CMV)/TetO2 promoter that can be induced by adding doxycycline. The Tet-On ΔK280 tauRD-DsRed 293 and SH-SY5Y cells were grown in medium containing blasticidin (5 μg/mL) and hygromycin (100 μg/mL) and were used for the following evaluation.
ΔK280 tauRD-DsRed 293 cells were seeded into 96-well plates, grown for 24 h, and pretreated with 0.1, 1, 10 μM of congo red (a known tau aggregation inhibitor), compound (A), compound (B), and compound (C) for 8 h. Then doxycycline (Dox; 1 μg/mL) was added for 3 days to induce ΔK280 tauRD-DsRed expression and DsRed fluorescence was assessed using a high content analysis (HCA) system.
The DsRed fluorescence of ΔK280 tauRD-DsRed fusion protein was used to reflect the aggregation condition of ΔK280 tauRD. Misfolding of fused DsRed occurred when ΔK280 tauRD aggregated, and thus decreasing the DsRed fluorescence. Accordingly, inhibition of ΔK280 tauRD aggregation may improve the DsRed misfolding and increase DsRed fluorescence.

Data set [3] in a line: Cytotoxicity in 293 cells expressing ΔK280 tauRD-DsRed fusion protein. It counts as cell-based. The settings on record: human, ΔK280 tauRD-DsRed 293 cells.
Data set [4] concerns ΔK280 tauRD-DsRed 293 cells. The experiment in a line: ROS level (DCFH-DA, flow cytometry) in induced ΔK280 tauRD-DsRed 293 cells. It counts as cell-based, human. The settings on record: 10 μM, 8 h pretreatment, Dox 3 days. On the procedure: (§3) ΔK280 tauRD-DsRed 293 cells were seeded into 12-well plates, grown for 24 h, and pretreated with 10 μM of congo red, compound (A), compound (B), and compound (C) respectively for 8 h. Then, doxycycline (1 μg/mL) was added for 3 days to induce ΔK280 tauRD-DsRed expression.
Next, uninduced cells, doxycycline-induced but compound-untreated cells, and doxycycline-induced and compound-treated cells were incubated with 2′,7′-dichlorodihydrofluorecein diacetate (DCFH-DA) in 37° C. for 30 minutes, and then washed with PBS. The excited green fluorescence intensity under 492-495/517-527 nm of excitation/emission wavelength was measured using flow cytometry (BD) to evaluate the ROS level.

A further data set concerns caspase 3. The experiment in a line: Caspase 3 activity (Ac-DEVD-AMC) in induced ΔK280 tauRD-DsRed 293 cells. The settings on record: 10 μM, 8 h pretreatment, Dox 3 days. It counts as cell-based, human. The protocol:
as §3
In addition, the caspase 3 activity of uninduced cells, doxycycline-induced but compound-untreated cells, and doxycycline-induced and compound-treated cells were measured using Caspase 3 Assay Kit (Sigma). 10^6 cells in each group were harvested and 100 μL of lysis buffer was added, incubated on the ice for 20 minutes, and then, Ac-DEVD-AMC substrate was added into each group. The release of the fluorescent AMC was recorded under 360/460 nm of excitation/emission wavelength using an FLx800 microplate fluorescence reader (Bio-Tek). The caspase 3 activity was calculated using an AMC standard curve.

The test system of data set [5] is ΔK280 tauRD-DsRed SH-SY5Y cells. The data set can be described thus: Neurite growth in induced ΔK280 tauRD-DsRed SH-SY5Y cells. It counts as cell-based, human. Conditions: 10 μM, 8 h pretreatment, Dox 7 days, retinoic acid-differentiated. On the procedure: ΔK280 tauRD-DsRed SH-SY5Y tauRD-DsRed cells were seeded in 6-well plate (1×10^5/well) in a medium containing all-trans retinoic acid (10 μM), grown for 24 h, and pretreated with 10 μM of congo red, compound (A), compound (B), and compound (C) for 8 h; after which, ΔK280 tauRD-DsRed expression was induced with 1 μg/mL doxycycline for 7 days. The cells were then fixed in 4% paraformaldehyde, permeabilized with 0.1% Triton X-100, blocked in 3% BSA, stained with the primary antibody anti-TUBB3 (against neuronal Class III β-tubulin) (1:1000; Convance) and with a secondary anti-rabbit Alexa Fluor® 555 antibody (1:500; Molecular Probes), and then incubated at room temperature for 3 h. Nuclei were counterstained with 4′,6-diamidino-2-phenylindole (DAPI). The total outgrowth in the untreated cells, cells treated with congo red, compound (A), compound (B), and compound (C) were assessed using MetaMorph image acquisition and analysis software.

As to `CCOC(=O)[C@@H]1OC(O)[C@H](C)[C@@H](c2cccs2)[C@@H]1[N+](=O)[O-]` (some centres unmarked) [compound (B)], the IC50 at 24 h in data set [1] turned out to be 135 µM; in data set [2], 273 µM. Further, the “DsRed fluorescence intensity relative to untreated cells (100%)” value on ΔK280 tauRD-DsRed (10 μM) is given as 111%. For the same compound, the IC50 at 80 h in data set [3] amounted to 42 µM.
Turning to `CCOC(=O)[C@@H]1OC(O)[C@H](C)[C@@H](c2ccc(OC)cc2)[C@@H]1[N+](=O)[O-]` (some centres unmarked) [compound (A)], the IC50 at 24 h in data set [1] was 128 µM; in data set [2], 267 µM. For the same compound, the “DsRed fluorescence intensity relative to untreated cells (100%)” value on ΔK280 tauRD-DsRed (1-10 μM) was 105-110%. The IC50 at 80 h in data set [3] came out at 32 µM.
For `CCOC(=O)[C@@H]1OC(O)[C@H](C)[C@@H](c2ccccc2)[C@@H]1[N+](=O)[O-]` (some centres unmarked) [compound (C)] the same measures were 135 µM, 275 µM, 106-113% and 42 µM.
With `Nc1c(/N=N/c2ccc(-c3ccc(/N=N/c4cc(S(=O)(=O)O)c5ccccc5c4N)cc3)cc2)cc(S(=O)(=O)O)c2ccccc12` [congo red], the “DsRed fluorescence intensity relative to untreated cells (100%)” value at ΔK280 tauRD-DsRed (10 μM) is reported as 108%. The same compound gave an IC50 at 80 h in data set [3] of 60 µM. The “ROS level (uninduced cells 100%; induced untreated 110%)” value in data set [4] amounted to 93%. Moreover, the “caspase 3 activity (uninduced cells 100%; induced untreated 129%)” value in the data set with caspase 3 stood at 63%. In data set [5], the “neurite growth (uninduced cells 100%; induced untreated 89%)” value stood at 99%.
